Reference: ChEMBL document CHEMBL3608278 (J Med Chem, 2015)

What was measured:
[1] = biological target: T1, Potassium voltage-gated channel subfamily A member 3 (Homo sapiens, UniProt P22001); format: cell-based, CHO-K1
[2] = biological target: T1, Potassium voltage-gated channel subfamily A member 3; set-up: species or system Blood
[3] = biological target: T1, Potassium voltage-gated channel subfamily A member 3; assay: cell-based; set-up: species or system Blood

T1 sequence (P22001 whole entry): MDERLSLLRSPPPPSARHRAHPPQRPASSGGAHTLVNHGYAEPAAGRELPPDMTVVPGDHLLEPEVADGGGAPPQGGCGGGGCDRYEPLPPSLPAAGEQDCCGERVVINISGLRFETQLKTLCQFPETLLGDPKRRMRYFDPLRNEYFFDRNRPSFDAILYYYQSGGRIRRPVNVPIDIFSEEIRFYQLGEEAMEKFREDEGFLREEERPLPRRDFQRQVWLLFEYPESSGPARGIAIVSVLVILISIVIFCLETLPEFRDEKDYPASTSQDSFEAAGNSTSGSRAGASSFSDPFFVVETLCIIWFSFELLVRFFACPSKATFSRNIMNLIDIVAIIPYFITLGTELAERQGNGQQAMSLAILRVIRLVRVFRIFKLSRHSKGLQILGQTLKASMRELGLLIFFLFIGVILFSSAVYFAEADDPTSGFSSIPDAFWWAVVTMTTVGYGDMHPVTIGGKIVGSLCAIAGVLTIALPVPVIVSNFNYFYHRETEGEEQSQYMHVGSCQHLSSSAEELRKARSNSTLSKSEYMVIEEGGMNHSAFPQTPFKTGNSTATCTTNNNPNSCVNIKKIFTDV

Row | Structure (SMILES) | IC50 [1] | IC50 [2] | IC50 [3]
1 | CC[C@H](C)[C@@H]1NC(=O)[C@@H](NC(=O)[C@H](CO)NC(=O)[C@@H](N)CCCNC(=N)N)CSSC[C@@H](C(=O)O)NC(=O)[C@H]([C@@H](C)O)NC(=O)CNC(=O)[C@@H]2CSSC[C@@H]3NC(=O)[C@H](CCC(N)=O)NC(=O)[C@H](Cc4ccccc4)NC(=O)[C@H](C)NC(=O)[C@H]([C@@H](C)O)NC(=O)[C@H](CSSC[C@H](NC(=O)[C@H](Cc4ccccc4)NC(=O)[C@H](CO)NC(=O)[C@H](CC(C)C)NC(=O)[C@H](CCCNC(=N)N)NC(=O)[C@H](Cc4ccc(O)cc4)NC(=O)[C@H](CCCCN)NC(=O)[C@H](CCSC)NC(=O)[C@H](CO)NC(=O)[C@H](Cc4cnc[nH]4)NC(=O)[C@H](CCCCN)NC3=O)C(=O)N[C@@H](CCCNC(=N)N)C(=O)N[C@@H](CCCCN)C(=O)N[C@@H]([C@@H](C)O)C(=O)N2)NC(=O)[C@H](CCCNC(=N)N)NC(=O)[C@H](CO)NC(=O)[C@H](CCCCN)NC(=O)[C@@H]2CCCN2C(=O)[C@H](CCC(=O)O)NC(=O)[C@H]([C@@H](C)O)NC(=O)[C@H](CC(=O)O)NC1=O | 1.31 nM | 19.5 nM | 5 nM
2 | CC[C@H](C)[C@@H]1NC(=O)[C@@H](NC(=O)[C@H](CO)NC(=O)[C@@H](N)CCCNC(=N)N)CSSC[C@@H](C(=O)O)NC(=O)[C@H]([C@@H](C)O)NC(=O)CNC(=O)[C@@H]2CSSC[C@@H]3NC(=O)[C@H](CCC(N)=O)NC(=O)[C@H](Cc4ccccc4)NC(=O)[C@H](C)NC(=O)[C@H]([C@@H](C)O)NC(=O)[C@H](CSSC[C@H](NC(=O)[C@H](Cc4ccccc4)NC(=O)[C@H](CO)NC(=O)[C@H](CC(C)C)NC(=O)[C@H](CCCNC(=N)N)NC(=O)[C@H](Cc4ccc(O)cc4)NC(=O)[C@H](CCCCN)NC(=O)[C@H](CCSC)NC(=O)[C@H](CO)NC(=O)[C@H](Cc4cnc[nH]4)NC(=O)[C@H](CCCCN)NC3=O)C(=O)N[C@@H](CCCNC(=N)N)C(=O)N[C@@H](CCCCN)C(=O)N[C@@H]([C@@H](C)O)C(=O)N2)NC(=O)[C@H](CCCNC(=N)N)NC(=O)[C@H](CO)NC(=O)[C@H](CCCCN)NC(=O)[C@@H]2CCCN2C(=O)[C@H]([C@@H](C)CC)NC(=O)[C@H]([C@@H](C)O)NC(=O)[C@H](CCCNC(=N)N)NC1=O | > 3.33 nM | 91.7 nM | 40.5 nM
3 | CC[C@H](C)[C@@H]1NC(=O)[C@@H](NC(=O)[C@H](CO)NC(=O)[C@@H](N)CCCNC(=N)N)CSSC[C@@H](C(=O)O)NC(=O)[C@H](CCCNC(=N)N)NC(=O)CNC(=O)[C@@H]2CSSC[C@@H]3NC(=O)[C@H](CCC(N)=O)NC(=O)[C@H](Cc4ccccc4)NC(=O)[C@H](C)NC(=O)[C@H]([C@@H](C)O)NC(=O)[C@H](CSSC[C@H](NC(=O)[C@H](Cc4ccccc4)NC(=O)[C@H](CO)NC(=O)[C@H](CC(C)C)NC(=O)[C@H](CCCNC(=N)N)NC(=O)[C@H](Cc4ccc(O)cc4)NC(=O)[C@H](CCCCN)NC(=O)[C@H](CCSC)NC(=O)[C@H](CO)NC(=O)[C@H](Cc4cnc[nH]4)NC(=O)[C@H](CCCCN)NC3=O)C(=O)N[C@@H](CCCNC(=N)N)C(=O)N[C@@H](CCCCN)C(=O)N[C@@H]([C@@H](C)O)C(=O)N2)NC(=O)[C@H](CCCNC(=N)N)NC(=O)[C@H](CO)NC(=O)[C@H](CCCCN)NC(=O)[C@@H]2CCCN2C(=O)[C@H]([C@@H](C)CC)NC(=O)[C@H]([C@@H](C)O)NC(=O)[C@H](CC(=O)O)NC1=O | 0.191 nM | 0.475 nM | 0.357 nM
